In article PMC10902181 (Journal of neurochemistry, 2023):

Columns and labels:
[1] = target: T1, WT GluN1/GluN2A (Homo sapiens, UniProt Q05586+Q12879); experiment: Current-voltage curves; conditions: WT 2A, 1 mM Mg^2+ alone
[2] = target: T2, GluN1/GluN2A-L611Q (Homo sapiens, UniProt Q05586+Q12879, L611Q); experiment: Current-voltage curves; conditions: 2A-L611Q, 1 mM Mg^2+ alone
[3] = target: T3, WT GluN1/GluN2B (Homo sapiens, UniProt Q05586+Q13224); experiment: Current-voltage curves; conditions: WT 2B, 1 mM Mg^2+ alone
[4] = target: GluN1/GluN2B-V620M (Homo sapiens, UniProt Q05586+Q13224, V620M); experiment: Current-voltage curves; conditions: 2B-V620M
[5] = target: T1, WT GluN1/GluN2A; experiment: TEVC current recordings from Xenopus oocytes, channel blocker inhibition; type: cell-based; conditions: WT GluN1/WT 2A, 100 μM blocker, −40 mV
[6] = target: GluN1-G620R/GluN2A (Homo sapiens, UniProt Q05586+Q12879, G620R); experiment: as above; type: cell-based; conditions: for % inhibition: 1-G620R/2A, 100 μM blocker, −40 mV
[7] = target: T2, GluN1/GluN2A-L611Q; experiment: as above; type: cell-based; conditions: for % inhibition: 2A-L611Q, 100 μM blocker, −40 mV
[8] = target: GluN2A-N614S-containing NMDARs (Homo sapiens, UniProt Q05586+Q12879, N614S); experiment: as above; type: cell-based; conditions: for % inhibition: 2A-N614S, 100 μM blocker, −40 mV
[9] = target: GluN2A-N615K-containing NMDARs (Homo sapiens, UniProt Q05586+Q12879, N615K); experiment: as above; type: cell-based; conditions: 2A-N615K, 100 μM blocker, −40 mV
[10] = target: T3, WT GluN1/GluN2B; experiment: as above; type: cell-based; conditions: WT GluN1/WT 2B, 100 μM blocker, −40 mV
[11] = target: GluN2B-W607C-containing NMDARs (Homo sapiens, UniProt Q05586+Q13224, W607C); experiment: as above; type: cell-based; conditions: 2B-W607C, 100 μM blocker, −40 mV
[12] = target: GluN2B-G611V-containing NMDARs (Homo sapiens, UniProt Q05586+Q13224, G611V); experiment: as above; type: cell-based; conditions: 2B-G611V, 100 μM blocker, −40 mV
[13] = target: GluN1/GluN2B-N615I (Homo sapiens, UniProt Q05586+Q13224, N615I); experiment: as above; type: cell-based; conditions: for % inhibition: 2B-N615I, 100 μM blocker, −40 mV
[14] = target: GluN1/GluN2B-N615K (Homo sapiens, UniProt Q05586+Q13224, N615K); experiment: as above; type: cell-based; conditions: 2B-N615K, 100 μM blocker, −40 mV
[15] = target: GluN2B-N616K-containing NMDARs (Homo sapiens, UniProt Q05586+Q13224, N616K); experiment: as above; type: cell-based; conditions: 2B-N616K, 100 μM blocker, −40 mV
[16] = target: GluN2B-V618G-containing NMDARs (Homo sapiens, UniProt Q05586+Q13224, V618G); experiment: as above; type: cell-based; conditions: 2B-V618G, 100 μM blocker, −40 mV
[17] = target: GluN2B-V620M-containing NMDARs (Homo sapiens, UniProt Q05586+Q13224, V620M); experiment: as above; type: cell-based; conditions: 2B-V620M, 100 μM blocker, −40 mV

[Mg+2] [Mg^2+]
z δ [1]: 1.97
Kd ([1]; read-out: KD, 0 mV): 1520 µM
z δ [2]: 1.21
Kd ([2]; read-out: KD, 0 mV): 13000 µM
z δ [3]: 1.96
Kd ([3]; read-out: KD, 0 mV): 1830 µM
z δ ([4]; 1 mM Mg^2+ alone): 1.47
Kd ([4]; read-out: KD, 0 mV, 1 mM Mg^2+ alone): 3930 µM

CC12CC3CC(C)(C1)CC(N)(C3)C2 [memantine]
% inhibition ([5]; w/ 1 mM Mg^2+): 89 ± 1.3% (30)
% inhibition ([5]; w/o Mg^2+): 94 ± 1.2% (15)
% inhibition ([6]; w/ 1 mM Mg^2+): 98 ± 0.4 (8) %
% inhibition ([6]; w/o Mg^2+): 96 ± 1.3% (8)
increased potency in 1 mM Mg^2+ compared to the same variant in the absence of Mg^2+ ([6]; GluN1-G620R): 2.4 fold
enhanced potency in comparison to WT NMDARs ([6]; GluN1-G620R, absence of Mg^2+): 2.7 fold
enhanced potency compared to the WT receptors ([6]; GluN1-G620R, presence of 1 mM Mg^2+): 17 fold
% inhibition ([7]; w/ 1 mM Mg^2+): 94 ± 0.6% (9)
% inhibition ([7]; w/o Mg^2+): 87 ± 2.1% (12)
increased potency in 1 mM Mg^2+ compared to the same variant in the absence of Mg^2+ ([7]; GluN2A-L611Q): 3.1 fold
enhanced potency compared to the WT receptors ([7]; GluN2A-L611Q, presence of 1 mM Mg^2+): 3.7 fold
% inhibition ([8]; w/ 1 mM Mg^2+): 25 ± 6.1% (10) ^*^¥
% inhibition ([8]; w/o Mg^2+): 60 ± 4.1% (9)^¥
reduced sensitivity compared to the WT receptors ([8]; GluN2A-N614S, presence of 1 mM Mg^2+): 9 fold
% inhibition ([9]; w/ 1 mM Mg^2+): 81 ± 1.6% (8) ^*^¥
% inhibition ([9]; w/o Mg^2+): 90 ± 2.5% (7)
% inhibition ([10]; w/ 1 mM Mg^2+): 93 ± 0.8% (26)
% inhibition ([10]; w/o Mg^2+): 97 ± 1.1% (18)
% inhibition ([11]; w/ 1 mM Mg^2+): 92 ± 2.8% (11)
% inhibition ([11]; w/o Mg^2+): 91 ± 2.0% (10)
% inhibition ([12]; w/ 1 mM Mg^2+): 97 ± 1.2% (14)
% inhibition ([12]; w/o Mg^2+): 95 ± 1.4% (10)
% inhibition ([13]; w/ 1 mM Mg^2+): 98 ± 0.7% (13)
% inhibition ([13]; w/o Mg^2+): 96 ± 1.1% (11)
enhanced potency in comparison to WT NMDARs ([13]; GluN2B-N615I, absence of Mg^2+): 4.3 fold
enhanced potency compared to the WT receptors ([13]; GluN2B-N615I, presence of 1 mM Mg^2+): 7.2 fold
% inhibition ([14]; w/ 1 mM Mg^2+): 12 ± 1.9% (21) ^*^¥
% inhibition ([14]; w/o Mg^2+): 22 ± 2.5% (14)^¥
% inhibition ([15]; w/ 1 mM Mg^2+): 88 ± 1.6% (24)^¥
% inhibition ([15]; w/o Mg^2+): 93 ± 1.8% (7)
% inhibition ([16]; w/ 1 mM Mg^2+): 87 ± 2.1% (14)^¥
% inhibition ([16]; w/o Mg^2+): 85 ± 1.5% (16)^¥
% inhibition ([17]; w/ 1 mM Mg^2+): 95 ± 0.7% (7)
% inhibition ([17]; w/o Mg^2+): 96 ± 0.7% (8)
z δ (apparent, combined block) ([4]; 1 mM Mg^2+ + 0.3 μM memantine): 1.54
z δ (apparent, combined block) ([4]; 1 mM Mg^2+ + 1.0 μM memantine): 1.52
z δ (apparent, combined block) ([4]; 1 mM Mg^2+ + 3.0 μM memantine): 1.38
z δ (apparent, combined block) ([4]; 1 mM Mg^2+ + 10 μM memantine): 1.28
